Reference: patent US20190151315A1, “Drug For Preventing Or Treating Lactic Acidosis” (KEIO UNIVERSITY, priority 2016, published 2019)

Assays:
Format in all cases: in vivo, mouse (C57BL/6)
[1] = system: MALA-complicated CKD model mice; test: Survival analysis in MALA-complicated chronic kidney disease (CKD) model mice, Compound A (Test Example 2); conditions: for survival rate as compared to vehicle alone: 10 mg/kg oral
From the text: (§1) All mice used in Examples were 7- to 13-week-old wild-type C57BL/6 male mice obtained from CLEA Japan, Inc. The mice were fed ad libitum on a 12-hour light/12-hour dark cycle in a specific pathogen-free facility.
(§2) In statistical analysis in Examples, power calculation for determining a sample size was not performed. Mice that died of lactic acidosis before treatment with a vehicle or Compound A were excluded from mice to be analyzed. For a comparison of normally distributed data between groups, analysis was performed using unpaired Student's t-test. A difference in survival rate was analyzed by log-rank (Mantel-Cox) test through use of GraphPad Prism software.
(§3) 7-Week-old wild-type C57BL/6 male mice were fed ad libitum with a standard or 0.2% adenine feed for 6 weeks. The population fed with the 0.2% adenine feed was used as CKD model mice.
(§4) Further, the CKD model mice were administered with 0.5 mg/g body weight of metformin on day 1 to produce a MALA-complicated CKD mouse model. After 4 hours from the metformin administration, a whole blood sample (5 μl) was collected from the tail vein, and a blood lactate level was measured using Lactate Pro Test Meter and Lactate Pro Test Strip (Cycle Classic Imports). […] Kaplan-Meier survival analysis was performed for those mice.

[2] = system: MALA model mice; test: Survival analysis in metformin-associated lactic acidosis (MALA) model mice (Test Example 1); conditions: for survival rate as compared to vehicle alone: 30 mg/kg oral
From the text: as §1, §2
In the morning and evening of day 1, and the morning of day 2, 0.25 mg/g body weight of metformin dissolved in distilled water was orally administered to 8-week-old wild-type C57BL/6 male mice to produce MALA model mice. Immediately after the metformin administration to the model mice on day 2, a vehicle (0.5% methyl cellulose; 64625; Sigma-Aldrich) or 30 mg/kg body weight of Compound A (produced in Example 1) was orally administered. After 4 hours from the oral administration, the model mice were administered with 0.4 mg/g body weight of lactic acid dissolved in 0.9% NaCl by intraperitoneal injection. Kaplan-Meier survival analysis was performed for those mice.

[3] = system: MALA-complicated CKD model mice; test: Survival analysis in MALA-complicated chronic kidney disease (CKD) model mice, Compound B (Test Example 3); conditions: for survival rate as compared to vehicle alone: 30 mg/kg oral
From the text: as §1, §2, §3, §4

SMILES	survival rate as compared to vehicle alone (Kaplan-Meier, FIG. 2) ([1]; 10 mg/kg body weight oral, single, mice with blood lactate more than 8 mM after metformin 0.5 mg/g)	survival rate as compared to vehicle alone ([1]; after 24 hours)	survival rate as compared to vehicle alone ([1]; after 48 hours)	survival rate as compared to vehicle alone ([1]; after 72 hours)	survival rate as compared to vehicle alone (Kaplan-Meier, FIG. 1) ([2]; 30 mg/kg body weight oral, single, metformin 0.25 mg/g x3, lactic acid 0.4 mg/g i.p. after 4 hours)	survival rate as compared to vehicle alone ([2]; after 24 hours)	survival rate as compared to vehicle alone ([2]; after 48 hours)	survival rate as compared to vehicle alone ([2]; after 72 hours)	survival rate as compared to vehicle alone ([2]; after 96 hours)	survival rate as compared to vehicle alone ([2]; after 120 hours)	survival rate as compared to vehicle alone (Kaplan-Meier, FIG. 3) ([3]; 30 mg/kg body weight oral, single, mice with blood lactate more than 8 mM after metformin 0.5 mg/g)	survival rate as compared to vehicle alone ([3]; after 24 hours)	survival rate as compared to vehicle alone ([3]; after 48 hours)	survival rate as compared to vehicle alone ([3]; after 72 hours)
Cc1nc(CC2CCN(c3ccc(-c4ccc(CO)cc4)cc3)CC2)nc(C(=O)NCC(=O)O)c1O [Compound A, ({[5-hydroxy-2-({1-[4′-(hydroxymethyl)biphenyl-4-yl]piperidin-4-yl}methyl)-6-methylpyrimidin-4-yl]carbonyl}amino)acetic acid]	significantly high survival rate	about 2.9 fold	about 5.8 fold	about 5.8 fold	significantly high survival rate	about 1.8 fold	about 2.8 fold	about 2.6 fold	about 2.4 fold	about 2.6 fold	–	–	–	–
Cc1nc(CC2CCN(c3ccc(-c4ccc(C[C@H](C)O)cc4)cc3)CC2)nc(C(=O)NCC(=O)O)c1O [Compound B, [({5-hydroxy-2-[(1-{4′-[(2S)-2-hydroxypropyl]biphenyl-4-yl}piperidin-4-yl)methyl]-6-methylpyrimidin-4-yl}carbonyl)amino]acetic acid]	–	–	–	–	–	–	–	–	–	–	significantly high survival rate	about 1.7 fold	about 2.0 fold	about 2.0 fold
